# Data reported in ChEMBL document CHEMBL5303573, “Mapping human microbiome drug metabolism by gut bacteria and their genes” (Nature, 2019).
# Columns and labels:
# [1] = The drug is tested on Bifidobacterium breve strain: DSM20213 for biotransformation. The drug concentrations were measured before and after a 12-h incubation by liquid-chromatography-coupled mass spectrometry (LC–MS); details: 2 µM
# [2] = The drug is tested on Bacteroides coprophilus strain: DSM18228 for biotransformation. The drug concentrations were measured before and after a 12-h incubation by liquid-chromatography-coupled mass spectrometry (LC–MS); details: 2 µM
# [3] = The drug is tested on Bacteroides dorei strain: DSM17855 for biotransformation. The drug concentrations were measured before and after a 12-h incubation by liquid-chromatography-coupled mass spectrometry (LC–MS); details: phocaeicola dorei, 2 µM
# [4] = The drug is tested on Bacteroides fragilis strain: HMW615 for biotransformation. The drug concentrations were measured before and after a 12-h incubation by liquid-chromatography-coupled mass spectrometry (LC–MS); details: 2 µM
# [5] = The drug is tested on Bacteroides uniformis strain: ATCC8492 for biotransformation. The drug concentrations were measured before and after a 12-h incubation by liquid-chromatography-coupled mass spectrometry (LC–MS); details: 2 µM
# [6] = The drug is tested on Bacteroides sp. WH2 strain: WH2 for biotransformation. The drug concentrations were measured before and after a 12-h incubation by liquid-chromatography-coupled mass spectrometry (LC–MS); details: bacteroides sp. wh2, 12 h, 2 µM
# [7] = The drug is tested on Odoribacter splanchnicus strain: fecal isolate for biotransformation. The drug concentrations were measured before and after a 12-h incubation by liquid-chromatography-coupled mass spectrometry (LC–MS); details: 2 µM
# [8] = The drug is tested on Anaerococcus hydrogenalis strain: DSM7454 for biotransformation. The drug concentrations were measured before and after a 12-h incubation by liquid-chromatography-coupled mass spectrometry (LC–MS); details: 2 µM
# [9] = The drug is tested on Clostridium asparagiforme strain: DSM15981 for biotransformation. The drug concentrations were measured before and after a 12-h incubation by liquid-chromatography-coupled mass spectrometry (LC–MS); assay type: ADME; parameters: dose 2 uM, timepoint 0 vs 12 hours; details: enterocloster asparagiformis, 2 µM
# [10] = The drug is tested on Clostridium symbiosum strain: ATCC14940 for biotransformation. The drug concentrations were measured before and after a 12-h incubation by liquid-chromatography-coupled mass spectrometry (LC–MS); details: 2 µM
# [11] = The drug is tested on Enterococcus faecalis strain: V583 for biotransformation. The drug concentrations were measured before and after a 12-h incubation by liquid-chromatography-coupled mass spectrometry (LC–MS); details: 2 µM
# [12] = The drug is tested on Eubacterium hallii strain: DSM3353 for biotransformation. The drug concentrations were measured before and after a 12-h incubation by liquid-chromatography-coupled mass spectrometry (LC–MS); details: anaerobutyricum hallii, 2 µM
# [13] = The drug is tested on Eubacterium rectale strain: ATCC33656 for biotransformation. The drug concentrations were measured before and after a 12-h incubation by liquid-chromatography-coupled mass spectrometry (LC–MS); details: agathobacter rectalis, 2 µM
# [14] = The drug is tested on Edwardsiella tarda strain: ATCC23685 for biotransformation. The drug concentrations were measured before and after a 12-h incubation by liquid-chromatography-coupled mass spectrometry (LC–MS); details: 2 µM
# [15] = The drug is tested on Enterobacter cancerogenus strain: ATCC35316 for biotransformation. The drug concentrations were measured before and after a 12-h incubation by liquid-chromatography-coupled mass spectrometry (LC–MS); details: 2 µM
# [16] = The drug is tested on Escherichia coli strain: BW25113 for biotransformation. The drug concentrations were measured before and after a 12-h incubation by liquid-chromatography-coupled mass spectrometry (LC–MS); details: 2 µM
# [17] = bacteroides eggerthii, 12 h, 2 µM
# Description: The drug is tested on Bacteroides eggerthii strain: DSM20697 for biotransformation. The drug concentrations were measured before and after a 12-h incubation by liquid-chromatography-coupled mass spectrometry (LC–MS)
# [18] = bacteroides fragilis, 12 h, 2 µM
# Description: The drug is tested on Bacteroides fragilis strain: NCTC 9343 for biotransformation. The drug concentrations were measured before and after a 12-h incubation by liquid-chromatography-coupled mass spectrometry (LC–MS)
# [19] = parabacteroides distasonis, 12 h, 2 µM
# Description: The drug is tested on Parabacteroides distasonis strain: ATCC8503 for biotransformation. The drug concentrations were measured before and after a 12-h incubation by liquid-chromatography-coupled mass spectrometry (LC–MS)
# [20] = limosilactobacillus reuteri cf48-3a, 12 h, 2 µM
# Description: The drug is tested on Lactobacillus reuteri CF48-3A strain: BEI HM-102 for biotransformation. The drug concentrations were measured before and after a 12-h incubation by liquid-chromatography-coupled mass spectrometry (LC–MS)
Structure (SMILES),Bacterial Biotransformation [1],Bacterial Biotransformation [2],Bacterial Biotransformation [3],Bacterial Biotransformation [4],Bacterial Biotransformation [5],Bacterial Biotransformation [6],Bacterial Biotransformation [7],Bacterial Biotransformation [8],Bacterial Biotransformation [9],Bacterial Biotransformation [10],Bacterial Biotransformation [11],Bacterial Biotransformation [12],Bacterial Biotransformation [13],Bacterial Biotransformation [14],Bacterial Biotransformation [15],Bacterial Biotransformation [16],Bacterial Biotransformation [17],Bacterial Biotransformation [18],Bacterial Biotransformation [19],Bacterial Biotransformation [20]
C[C@]12C=CC(=O)C=C1CC[C@@H]1[C@@H]2C(=O)C[C@@]2(C)[C@H]1CC[C@]2(O)C(=O)CO [PREDNISONE],Compound NOT metabolized,Compound NOT metabolized,Compound NOT metabolized,Compound NOT metabolized,Compound NOT metabolized,Compound NOT metabolized,Compound NOT metabolized,Compound NOT metabolized,Compound NOT metabolized,Compound NOT metabolized,Compound NOT metabolized,Compound NOT metabolized,Compound NOT metabolized,Compound NOT metabolized,Compound NOT metabolized,Compound NOT metabolized,Compound NOT metabolized,Compound NOT metabolized,Compound NOT metabolized,Compound NOT metabolized
O=C([O-])C[C@H](O)C[C@H](O)/C=C/c1c(C2CC2)nc2ccccc2c1-c1ccc(F)cc1.O=C([O-])C[C@H](O)C[C@H](O)/C=C/c1c(C2CC2)nc2ccccc2c1-c1ccc(F)cc1.[Ca+2] [PITAVASTATIN CALCIUM],Compound NOT metabolized,Compound NOT metabolized,Compound NOT metabolized,Compound NOT metabolized,Compound NOT metabolized,Compound NOT metabolized,Compound NOT metabolized,Compound NOT metabolized,Compound NOT metabolized,Compound NOT metabolized,–,Compound NOT metabolized,Compound NOT metabolized,Compound NOT metabolized,Compound NOT metabolized,Compound NOT metabolized,Compound NOT metabolized,Compound NOT metabolized,Compound NOT metabolized,Compound NOT metabolized
CN(C/C=C/C#CC(C)(C)C)Cc1cccc2ccccc12 [TERBINAFINE],Compound NOT metabolized,Compound NOT metabolized,Compound NOT metabolized,Compound NOT metabolized,Compound NOT metabolized,Compound NOT metabolized,Compound NOT metabolized,Compound NOT metabolized,Compound NOT metabolized,Compound NOT metabolized,Compound NOT metabolized,Compound NOT metabolized,Compound NOT metabolized,Compound NOT metabolized,Compound NOT metabolized,Compound NOT metabolized,Compound NOT metabolized,Compound NOT metabolized,Compound NOT metabolized,Compound NOT metabolized
CN1[C@@H]2CC[C@H]1C[C@@H](OC(=O)c1c[nH]c3ccccc13)C2 [TROPISETRON],Compound NOT metabolized,Compound NOT metabolized,Compound NOT metabolized,Compound NOT metabolized,Compound NOT metabolized,Compound NOT metabolized,Compound NOT metabolized,Compound NOT metabolized,Compound NOT metabolized,Compound NOT metabolized,–,Compound NOT metabolized,Compound NOT metabolized,Compound NOT metabolized,Compound NOT metabolized,Compound NOT metabolized,Compound NOT metabolized,Compound NOT metabolized,Compound NOT metabolized,Compound NOT metabolized
CNNCc1ccc(C(=O)NC(C)C)cc1 [PROCARBAZINE],Compound NOT metabolized,Compound NOT metabolized,Compound NOT metabolized,Compound metabolized,Compound NOT metabolized,–,Compound NOT metabolized,Compound NOT metabolized,Compound NOT metabolized,Compound NOT metabolized,Compound NOT metabolized,Compound NOT metabolized,Compound NOT metabolized,Compound NOT metabolized,Compound NOT metabolized,Compound NOT metabolized,–,Compound NOT metabolized,Compound NOT metabolized,Compound NOT metabolized
CC(=O)CC(c1ccccc1)c1c(O)c2ccccc2oc1=O (stereo unspecified) [WARFARIN],Compound NOT metabolized,Compound NOT metabolized,Compound NOT metabolized,Compound metabolized,Compound NOT metabolized,Compound NOT metabolized,Compound NOT metabolized,Compound NOT metabolized,Compound NOT metabolized,Compound NOT metabolized,Compound NOT metabolized,Compound NOT metabolized,Compound NOT metabolized,Compound NOT metabolized,Compound NOT metabolized,Compound NOT metabolized,Compound NOT metabolized,Compound NOT metabolized,Compound NOT metabolized,Compound NOT metabolized
